Laboratory results as given in patent publication EP3521435A1, “A HIGH STRINGENCY SELECTION SYSTEM FOR PROTEIN EXPRESSION IN PROLINE-AUXOTROPHIC CELLS” (Bayer AG, priority 2018, dated 2019).

Legend:
CHO-K1 cells [1] = assay: Fed-batch fermentation in shake flasks of human IgG1 expressing stable cell populations; format: cell-based, Chinese hamster; conditions: selected in CD-Fusion + 10 µg/ml Puromycin (pJF1576), non-selecting conditions; for Productivity profile: human IgG1
Excerpt: To test the performance of P5CS selection in combination with DHP in a production cell line development setting (i.e. only a single selection marker in expression vector), vectors with P5CS selection marker in place of Puromycin selection marker containing human IgG1 expression cassettes were generated and tested. For this experiment, the vector pJF1979 was taken as a reference, with Puromycin selection marker placed downstream of the human IgG1 expression cassette. For comparison, the vectors pJF1969 and pJF1970 were used, which contained short and long isoform of P5CS in place of Puromycin selection marker downstream of human IgG1 expression cassette. As control, vector pJF1576 from Example 8 was used, which contained both P5CS (upstream of human IgG1 expression cassette) and Puromycin (downstream of human IgG1 expression cassette) selection markers. […] The fed-batch was without pH control during cultivation and no additional glucose was fed apart from that present in feeding solutions. Table 22, Table 23 and Table 24 show viable cell density, viability and productivity profiles of cell populations cultured in fed-batch fermentation in shake flasks under non-selecting conditions (i.e. production medium containing proline and no additional selective agents like Puromycin or DHP) after inoculation at 3e5 viable cells/ml. […] Table 21: Cell viabilities determined post-transfection on day 21.

CHO-K1 cells [2] = assay: as above; format: cell-based, Chinese hamster; conditions: non-selecting conditions; for Productivity profile: human IgG1
murine P5CS long isoform = molecular target: T1, murine P5CS long isoform (Mus musculus, UniProt Q9Z110); conditions: Hu et al.; cited from earlier work
T1 sequence (Q9Z110 1-795): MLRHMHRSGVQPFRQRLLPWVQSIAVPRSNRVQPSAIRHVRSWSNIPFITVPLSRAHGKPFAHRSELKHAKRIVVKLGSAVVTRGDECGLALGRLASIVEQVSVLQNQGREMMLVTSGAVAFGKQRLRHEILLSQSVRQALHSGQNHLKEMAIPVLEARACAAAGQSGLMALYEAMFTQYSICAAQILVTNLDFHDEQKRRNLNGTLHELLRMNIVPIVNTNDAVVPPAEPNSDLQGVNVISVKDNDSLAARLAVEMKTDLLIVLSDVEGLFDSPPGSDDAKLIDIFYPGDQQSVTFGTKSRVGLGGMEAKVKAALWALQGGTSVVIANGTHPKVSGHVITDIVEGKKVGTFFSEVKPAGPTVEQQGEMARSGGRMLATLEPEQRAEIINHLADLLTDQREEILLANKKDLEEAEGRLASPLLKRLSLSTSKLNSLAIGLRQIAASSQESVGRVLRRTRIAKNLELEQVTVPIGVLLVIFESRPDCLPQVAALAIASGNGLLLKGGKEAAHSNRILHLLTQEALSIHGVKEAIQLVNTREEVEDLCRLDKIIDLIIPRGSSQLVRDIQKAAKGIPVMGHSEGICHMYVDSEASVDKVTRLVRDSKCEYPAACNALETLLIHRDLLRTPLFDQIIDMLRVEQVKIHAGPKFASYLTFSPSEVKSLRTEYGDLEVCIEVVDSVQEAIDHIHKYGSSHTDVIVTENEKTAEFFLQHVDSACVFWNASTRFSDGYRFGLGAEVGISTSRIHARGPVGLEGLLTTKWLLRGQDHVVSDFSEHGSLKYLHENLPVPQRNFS

[3] = Day 3 after inoculation, selected in CD-Fusion + 10 µg/ml Puromycin (pJF1576)
[4] = Day 3 after inoculation, selected in CD-Fusion + 10 µg/ml Puromycin (pJF1579)
[5] = Day 5 after inoculation, selected in CD-Fusion + 10 µg/ml Puromycin (pJF1579)
[6] = Day 5 after inoculation, selected in CD-Fusion + 10 µg/ml Puromycin (pJF1576)
[7] = Day 7 after inoculation, selected in CD-Fusion + 10 µg/ml Puromycin (pJF1579)
[8] = Day 10 after inoculation, selected in CD-Fusion + 10 µg/ml Puromycin (pJF1576)
[9] = Day 10 after inoculation, selected in CD-Fusion + 10 µg/ml Puromycin (pJF1579)
[10] = Day 12 after inoculation, selected in CD-Fusion + 10 µg/ml Puromycin (pJF1579)
[11] = Day 14 after inoculation, selected in CD-Fusion + 10 µg/ml Puromycin (pJF1576)
[12] = Day 14 after inoculation, selected in CD-Fusion + 10 µg/ml Puromycin (pJF1579)

Compound `COc1ccc(C[C@H](N)C(=O)N[C@H]2[C@@H](O)[C@H](n3cnc4c(N(C)C)ncnc43)O[C@@H]2CO)cc1` [Puromycin] has a Productivity profile (CHO-K1 cells [1]; Day 5 after inoculation) of 26.6 mg/L, a Productivity profile (CHO-K1 cells [1]; Day 7 after inoculation) of 68.9 mg/L and a Viability profile (CHO-K1 cells [1]; Day 7 after inoculation) of 99.3%. For the same compound, the Viability profile (CHO-K1 cells [1]; Day 10 after inoculation) was 97.0%, the Productivity profile (CHO-K1 cells [1]; Day 12 after inoculation) was 304.9 mg/L and the “Viable cell density profile” value (CHO-K1 cells [1]; Day 12 after inoculation) was 9,1E +06 VCD/ml. The Viability profile (CHO-K1 cells [2]; Day 0 after inoculation, selected in CD-Fusion + 10 µg/ml Puromycin (pJF1576)) was 99.8%, the Viability profile (CHO-K1 cells [2]; Day 0 after inoculation, selected in CD-Fusion + 10 µg/ml Puromycin (pJF1579)) was 99.8% and the Productivity profile (CHO-K1 cells [2]; [3]) was 13.6 mg/L. For the same compound, the Productivity profile (CHO-K1 cells [2]; [4]) was 12.4 mg/L, the Viability profile (CHO-K1 cells [2]; [3]) was 99.9% and the “Viable cell density profile” value (CHO-K1 cells [2]; [3]) was 1,4E +06 VCD/ml. For the same compound, the Viability profile (CHO-K1 cells [2]; [4]) was 99.8%, the “Viable cell density profile” value (CHO-K1 cells [2]; [4]) was 1,8E +06 VCD/ml and the Productivity profile (CHO-K1 cells [2]; [5]) was 24.4 mg/L. The Viability profile (CHO-K1 cells [2]; [6]) was 99.8%, the “Viable cell density profile” value (CHO-K1 cells [2]; [6]) was 4,8E +06 VCD/ml and the Viability profile (CHO-K1 cells [2]; [5]) was 99.9%. For the same compound, the “Viable cell density profile” value (CHO-K1 cells [2]; [5]) was 5,6E +06 VCD/ml, the Productivity profile (CHO-K1 cells [2]; [7]) was 60.0 mg/L and the “Viable cell density profile” value (CHO-K1 cells [2]; Day 7 after inoculation, selected in CD-Fusion + 10 µg/ml Puromycin (pJF1576)) was 9,5E +06 VCD/ml. For the same compound, the Viability profile (CHO-K1 cells [2]; [7]) was 99.2%, the “Viable cell density profile” value (CHO-K1 cells [2]; [7]) was 1,2E +07 VCD/ml and the Productivity profile (CHO-K1 cells [2]; [8]) was 182.0 mg/L. For the same compound, the Productivity profile (CHO-K1 cells [2]; [9]) was 155.1 mg/L, the “Viable cell density profile” value (CHO-K1 cells [2]; [8]) was 1,2E +07 VCD/ml and the Viability profile (CHO-K1 cells [2]; [9]) was 97.9%. For the same compound, the “Viable cell density profile” value (CHO-K1 cells [2]; [9]) was 1,5E +07 VCD/ml, the Productivity profile (CHO-K1 cells [2]; [10]) was 265.9 mg/L and the Viability profile (CHO-K1 cells [2]; Day 12 after inoculation, selected in CD-Fusion + 10 µg/ml Puromycin (pJF1576)) was 96.2%. The Viability profile (CHO-K1 cells [2]; [10]) was 97.5%, the “Viable cell density profile” value (CHO-K1 cells [2]; [10]) was 1,0E +07 VCD/ml and the Productivity profile (CHO-K1 cells [2]; [11]) was 442.2 mg/L. For the same compound, the Productivity profile (CHO-K1 cells [2]; [12]) was 372.0 mg/L, the Viability profile (CHO-K1 cells [2]; [11]) was 86.2% and the “Viable cell density profile” value (CHO-K1 cells [2]; [11]) was 7,4E +06 VCD/ml. The Viability profile (CHO-K1 cells [2]; [12]) was 92.7% and the “Viable cell density profile” value (CHO-K1 cells [2]; [12]) was 9,7E +06 VCD/ml.

In the case of `NCCC[C@H](N)C(=O)O` [Orn, L-Ornithine], the Ornithine inhibition (murine P5CS long isoform) is given as “insensitive”.
